The target in test [1] is Latent membrane protein 1 (Human herpesvirus 4 (strain B95-8), UniProt P03230). Nature of the test: TES1-eGFP NF-kB reporter inhibition versus Tet-On dsRED, dose response, selectivity assay for LMP1 NF-kB inhibitor project, imaging, HEK293T, dual-color eGFP/dsRED, cherry-picks (AID 588398). It is filed as functional, cell-based.
The nature of another test: cells. It is filed as functional.
Another test deals with HEK293. Nature of the test: inhibitors of LMP1-driven NF-kB reporter, dose response, cell-based, HEK293, luciferase, cherry-pick (AID 588343). The format is functional. The following applies: Homo sapiens.
The target of test [2] is T1, Polyadenylate-binding protein 1 (Homo sapiens, UniProt P11940). Nature of the test: PABP1 MLLE–PAM2 interaction inhibitors, dose response, miRNA deadenylation inhibitor project, biochemical, fluorescence polarization, Cy5-PAM2 peptide, secondary (AID 602260). It is filed as functional. The following applies: read-out: IC50_Mean. Background: Fluorescence polarisation rises when a labelled molecule tumbles more slowly, as on binding a larger partner.

Test [3] in a line: THP-1 cell cytotoxicity, dose response, cytotoxicity control for non-replicating M. tuberculosis project (AID 489025). It is filed as functional.
Test [4] deals with T1, Polyadenylate-binding protein 1. Nature of the test: PABP1 MLLE–PAM2 binding inhibitor potency, dose response, biochemical, fluorescence polarization, FITC-PAM2 peptide (AID 602259). The format is functional. The following applies: read-out: IC50_Mean.
The target of test [5] is ADP-ribosylation factor GTPase-activating protein 1 (Rattus norvegicus, UniProt Q62848). In words: Fluorescence polarization-based biochemical high throughput dose response screening assay to identify inhibitors of ADP-ribosylation factor GTPase activating protein 1 (ARFGAP1). It is filed as functional.
The target in test [6] is T2, Protein disulfide-isomerase (Homo sapiens, UniProt P07237). Nature of the test: PDI inhibitors, insulin turbidity readout, dose response, biochemical, absorbance, cherry-picked samples, set 2 (AID 624274). The format is functional.
Test [7] in a line: HepG2 cell cytotoxicity, dose response, cytotoxicity control for Shn3 inhibitor project, CellTiter-Glo, cherry-picked (AID 624134). It is filed as functional, cell-based. (In general: In ATP-based viability assays light output follows the ATP content of the culture.)
The nature of test [8]: Shn3 3'UTR reporter inhibitors, dose response, cell-based, Clone20 osteoblasts, firefly luciferase, cherry-picked (AID 624132).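 Also: firefly luciferase luminescence from reporter carrying the Shn3 3'UTR in osteoblasts.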 The format is functional.
The nature of test [9]: Fluorescence-based cell-based high throughput dose response assay for inhibitors of the interaction of nucleotide-binding oligomerization domain containing 2 (NOD2) and the receptor-interacting serine-threonine kinase 2 (RIPK2). It is filed as functional. To be noted: Homo sapiens.
The target in a further test is Beta Lactamase (Pseudomonas aeruginosa, UniProt Q932Y6). In words: beta-lactamase reporter inhibitor potency, dose response, artefact control for NOD2-RIPK2 interaction inhibitor project, BLA reporter cells, FRET fluorescence (AID 651552). It is filed as functional, cell-based.
The nature of test [10]: control 3'UTR Renilla luciferase suppression, dose response, counter-screen for Shn3 inhibitor project, cell-based, Clone20-Shn3RL, cherry-picked (AID 624133). The format is functional. Background: A counterscreen serves to expose hits that act by an unwanted route or on another target.
Another test concerns the target Paired box protein Pax-8 (Homo sapiens, UniProt Q06710). Nature of the test: inhibitors of PAX8-driven TPO luciferase reporter, dose response, RMG-I cells, cherry-pick (AID 687027).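 Also: luciferase reporter driven by Pax8 target thyroperoxidase promoter measured by SteadyGlo luminescence.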 The format is functional, cell-based.
Test [11] deals with T2, Protein disulfide-isomerase. In words: PDI inhibitors, insulin aggregation turbidity, dose response, biochemical, absorbance, cherry-picked samples (AID 602350). It is filed as functional.
Test [12] is described as follows: non-specific cell cytotoxicity, dose response, cytotoxicity control for PAX8 inhibitor project, plate reader, dry powder samples (AID 743021). The format is functional, cell-based.
For test [13], the target named is T3, Interleukin-8 (Homo sapiens, UniProt P10145). Nature of the test: Dose Response confirmation of uHTS small molecule hits for cystic fibrosis induced NFkb Inhibitors in a PAF-induced IL8 counterscreen. The format is functional. The following applies: read-out: IC50_Mean.
Test [14] concerns the target FAD-linked sulfhydryl oxidase ALR (Homo sapiens, UniProt P55789). In words: inhibitors of human ALR sulfhydryl oxidase, dose response, biochemical, H2O2 detection, luminescence, cherry-pick (AID 493248).
Test [15] addresses T3, Interleukin-8. In words: Dose Response confirmation of uHTS small molecule hits for cystic fibrosis induced NFkb Inhibitors in a TNFa-induced IL8 counterscreen. It is filed as functional. To be noted: read-out: IC50_Mean.
For test [16], the target named is T4, ATP-dependent translocase ABCB1 (Homo sapiens, UniProt P08183). Nature of the test: ABCB1 efflux inhibitor potency, dose response, Jurkat-DNR cells, JC-1, flow cytometry, set 2 (AID 504569).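 Also: potency of pump inhibitors that raise cellular JC-1 green fluorescence up to the nicardipine level.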 The format is functional. The following applies: read-out: EC50_MICROM_.
Test [17] has as its target T4, ATP-dependent translocase ABCB1. Nature of the test: ABCG2 efflux pump inhibitor potency, dose response, Ig-MXP3 cells, JC-1, flow cytometry, set 2 (AID 504566).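 Also: flow cytometry median green fluorescence of retained JC-1 dye; potency of efflux pump inhibition measured as rising substrate retention.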 The format is functional. To be noted: read-out: EC50_MICROM_.

A word on the AC50: it is the midpoint of the concentration-response curve, whichever way the signal moves. By CC50 is commonly meant the concentration at which the toxic effect on the cells reaches its halfway point.

Structures are written as SMILES. Calls of active or inactive are those of the source.

T2 sequence (P07237 whole entry): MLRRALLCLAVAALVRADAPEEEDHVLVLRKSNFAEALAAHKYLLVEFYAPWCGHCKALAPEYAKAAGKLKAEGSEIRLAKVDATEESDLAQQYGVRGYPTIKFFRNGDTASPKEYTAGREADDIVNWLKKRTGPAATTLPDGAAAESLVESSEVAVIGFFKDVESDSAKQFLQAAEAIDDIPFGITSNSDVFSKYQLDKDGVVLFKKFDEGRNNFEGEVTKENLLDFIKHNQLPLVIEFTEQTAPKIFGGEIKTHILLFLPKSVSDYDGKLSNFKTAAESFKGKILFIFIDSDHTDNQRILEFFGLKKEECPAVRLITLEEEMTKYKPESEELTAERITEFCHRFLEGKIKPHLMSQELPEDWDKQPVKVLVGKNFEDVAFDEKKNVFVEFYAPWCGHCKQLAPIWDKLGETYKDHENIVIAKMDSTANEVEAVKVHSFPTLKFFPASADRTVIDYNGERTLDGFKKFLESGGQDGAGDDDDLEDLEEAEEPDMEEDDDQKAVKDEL
T3 sequence (P10145 whole entry): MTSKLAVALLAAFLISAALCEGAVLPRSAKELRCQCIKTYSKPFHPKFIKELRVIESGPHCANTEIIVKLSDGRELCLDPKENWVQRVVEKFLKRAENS
T4 sequence (P08183 whole entry): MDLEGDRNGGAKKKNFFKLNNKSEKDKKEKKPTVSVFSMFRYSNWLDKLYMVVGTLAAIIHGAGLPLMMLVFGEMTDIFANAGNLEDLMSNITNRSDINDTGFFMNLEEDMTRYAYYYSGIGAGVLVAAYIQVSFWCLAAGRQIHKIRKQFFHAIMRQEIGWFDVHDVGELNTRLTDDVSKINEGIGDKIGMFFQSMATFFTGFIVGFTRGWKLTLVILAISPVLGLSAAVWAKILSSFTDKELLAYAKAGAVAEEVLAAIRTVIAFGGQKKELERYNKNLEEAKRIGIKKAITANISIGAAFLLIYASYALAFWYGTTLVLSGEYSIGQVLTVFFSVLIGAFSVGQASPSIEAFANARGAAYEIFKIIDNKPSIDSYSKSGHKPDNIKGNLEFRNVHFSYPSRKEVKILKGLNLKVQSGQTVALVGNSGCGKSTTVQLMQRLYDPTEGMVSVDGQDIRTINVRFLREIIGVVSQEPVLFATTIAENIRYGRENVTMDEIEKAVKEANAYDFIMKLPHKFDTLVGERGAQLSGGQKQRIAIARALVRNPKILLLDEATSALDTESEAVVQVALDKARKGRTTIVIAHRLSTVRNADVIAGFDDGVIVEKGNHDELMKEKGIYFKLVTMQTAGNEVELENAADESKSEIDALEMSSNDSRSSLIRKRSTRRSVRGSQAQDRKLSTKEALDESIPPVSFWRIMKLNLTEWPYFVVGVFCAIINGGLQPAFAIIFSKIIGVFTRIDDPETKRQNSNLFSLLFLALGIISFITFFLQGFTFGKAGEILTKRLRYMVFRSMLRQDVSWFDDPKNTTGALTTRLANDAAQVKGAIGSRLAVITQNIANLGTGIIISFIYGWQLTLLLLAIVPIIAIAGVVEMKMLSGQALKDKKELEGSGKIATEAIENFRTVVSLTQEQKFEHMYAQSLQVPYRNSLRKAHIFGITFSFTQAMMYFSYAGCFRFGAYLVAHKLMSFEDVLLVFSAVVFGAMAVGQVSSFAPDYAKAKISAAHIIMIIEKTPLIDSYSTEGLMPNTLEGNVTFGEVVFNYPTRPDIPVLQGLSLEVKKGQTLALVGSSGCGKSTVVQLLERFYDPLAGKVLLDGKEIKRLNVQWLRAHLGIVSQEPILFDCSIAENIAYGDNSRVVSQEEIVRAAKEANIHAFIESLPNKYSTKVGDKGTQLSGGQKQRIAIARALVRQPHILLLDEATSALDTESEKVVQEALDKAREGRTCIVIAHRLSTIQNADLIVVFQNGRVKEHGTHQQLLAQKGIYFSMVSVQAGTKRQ
T1 sequence (P11940 whole entry): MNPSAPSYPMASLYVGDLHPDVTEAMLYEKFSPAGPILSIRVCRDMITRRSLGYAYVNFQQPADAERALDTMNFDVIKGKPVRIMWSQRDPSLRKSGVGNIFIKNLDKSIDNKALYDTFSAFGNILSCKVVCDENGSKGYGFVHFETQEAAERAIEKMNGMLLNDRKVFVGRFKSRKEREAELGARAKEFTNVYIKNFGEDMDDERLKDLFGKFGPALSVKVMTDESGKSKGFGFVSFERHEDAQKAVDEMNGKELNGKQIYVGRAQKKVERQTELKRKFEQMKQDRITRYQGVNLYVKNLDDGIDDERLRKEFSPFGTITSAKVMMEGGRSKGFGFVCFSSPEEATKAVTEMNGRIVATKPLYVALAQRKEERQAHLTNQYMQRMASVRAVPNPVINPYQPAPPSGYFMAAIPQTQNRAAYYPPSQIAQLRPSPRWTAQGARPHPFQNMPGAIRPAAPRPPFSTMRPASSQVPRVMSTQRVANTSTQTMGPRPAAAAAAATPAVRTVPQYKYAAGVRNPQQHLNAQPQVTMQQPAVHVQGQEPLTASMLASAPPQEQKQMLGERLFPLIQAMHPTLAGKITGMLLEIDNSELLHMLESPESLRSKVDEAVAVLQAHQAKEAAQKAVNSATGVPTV
Chain of Paired box protein Pax-8 (Q06710 whole entry): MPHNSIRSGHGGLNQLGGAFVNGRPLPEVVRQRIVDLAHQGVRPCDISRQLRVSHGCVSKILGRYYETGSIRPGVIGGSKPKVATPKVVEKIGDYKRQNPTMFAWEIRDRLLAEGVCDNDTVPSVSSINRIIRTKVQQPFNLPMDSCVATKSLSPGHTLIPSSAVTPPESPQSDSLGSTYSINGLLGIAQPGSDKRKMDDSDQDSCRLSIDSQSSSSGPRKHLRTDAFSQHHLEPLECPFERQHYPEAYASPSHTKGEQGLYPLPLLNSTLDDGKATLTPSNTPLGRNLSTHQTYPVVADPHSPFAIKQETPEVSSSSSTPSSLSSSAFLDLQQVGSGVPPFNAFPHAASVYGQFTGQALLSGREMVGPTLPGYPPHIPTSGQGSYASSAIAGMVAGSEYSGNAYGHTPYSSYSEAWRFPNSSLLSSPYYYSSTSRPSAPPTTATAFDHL
Chain of ADP-ribosylation factor GTPase-activating protein 1 (Q62848 whole entry): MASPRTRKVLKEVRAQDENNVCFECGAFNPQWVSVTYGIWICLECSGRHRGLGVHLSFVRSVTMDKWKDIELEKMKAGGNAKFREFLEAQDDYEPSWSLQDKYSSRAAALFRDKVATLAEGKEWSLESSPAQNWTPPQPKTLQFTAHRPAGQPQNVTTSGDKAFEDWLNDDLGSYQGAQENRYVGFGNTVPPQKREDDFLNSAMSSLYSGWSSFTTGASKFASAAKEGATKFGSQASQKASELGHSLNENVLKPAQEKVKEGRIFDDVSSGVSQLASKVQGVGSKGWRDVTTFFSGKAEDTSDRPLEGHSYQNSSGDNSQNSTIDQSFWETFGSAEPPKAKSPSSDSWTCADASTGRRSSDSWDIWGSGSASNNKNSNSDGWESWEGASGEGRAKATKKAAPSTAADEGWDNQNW
Chain of Beta Lactamase (Q932Y6 whole entry): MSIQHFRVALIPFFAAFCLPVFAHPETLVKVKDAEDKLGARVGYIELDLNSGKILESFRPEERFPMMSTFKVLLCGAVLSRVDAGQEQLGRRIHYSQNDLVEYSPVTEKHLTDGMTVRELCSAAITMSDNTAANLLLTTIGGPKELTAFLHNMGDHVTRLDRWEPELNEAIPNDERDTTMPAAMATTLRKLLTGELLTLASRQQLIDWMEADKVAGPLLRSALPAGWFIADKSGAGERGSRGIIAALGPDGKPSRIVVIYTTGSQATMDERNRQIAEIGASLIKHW
Chain of Latent membrane protein 1 (P03230 whole entry): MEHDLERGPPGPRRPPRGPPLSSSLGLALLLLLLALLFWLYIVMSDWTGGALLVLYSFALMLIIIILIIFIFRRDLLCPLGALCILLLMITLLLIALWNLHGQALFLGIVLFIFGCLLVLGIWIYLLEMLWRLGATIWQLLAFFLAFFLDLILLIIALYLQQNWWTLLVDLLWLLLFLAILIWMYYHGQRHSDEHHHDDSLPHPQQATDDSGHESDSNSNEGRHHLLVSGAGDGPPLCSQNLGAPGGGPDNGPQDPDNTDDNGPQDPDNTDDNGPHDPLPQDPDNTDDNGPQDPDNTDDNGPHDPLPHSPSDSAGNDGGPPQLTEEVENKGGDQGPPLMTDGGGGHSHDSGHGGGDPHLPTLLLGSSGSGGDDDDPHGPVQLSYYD
Chain of FAD-linked sulfhydryl oxidase ALR (P55789 whole entry): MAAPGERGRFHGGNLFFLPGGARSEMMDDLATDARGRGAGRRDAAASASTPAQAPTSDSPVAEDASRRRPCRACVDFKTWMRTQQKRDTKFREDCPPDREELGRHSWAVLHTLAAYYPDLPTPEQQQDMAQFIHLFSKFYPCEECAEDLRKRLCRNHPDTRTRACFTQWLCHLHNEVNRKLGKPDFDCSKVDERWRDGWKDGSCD

Take `CN1C(=O)N(C)c2ccc(C=O)c3cccc1c23`: the figures for the AC50 (in [1]; in the test with HEK293) were 774 nM (active) and 6.36 µM (active), respectively. In addition, the IC50 was 31.1 µM (active) in “cells”, 37.9 µM (inactive) in [2] and 58.8 µM (inactive) in [4]. The CC50 in test [3] was 24.6 µM (active).
As for `Cc1nc(NCc2ccc(S(N)(=O)=O)cc2)c2c(C)c(C)sc2n1`, in test [5], the IC50 is 42.5 µM (inactive).
Consider `CS(=O)(=O)c1ccc(C(=O)OCC(=O)N2CCN(CCC3CCCCC3)CC2)cc1[N+](=O)[O-]`, for which the AC50 in test [6] was 9 nM (active); in test [7], 8.73 µM (active); in test [8], 2.41 µM (active); in test [10], 5.81 µM (active); on Paired box protein Pax-8 it was 6.68 µM (active); in test [11], < 9 nM (active). Further, the AC50 in test [12] was 27 µM (active). Also, the values for the IC50 (in test [9]; on Beta Lactamase) were 1.84 µM (active) and 11.6 µM (inactive), respectively.
`COc1ccc(-c2c[nH]nc2-c2ccc(OC)cc2O)cc1`: the IC50 was 43.5 µM (inactive) on Interleukin-8 [13] and > 79 µM (inactive) at Interleukin-8 [15]. For the same molecule, in test [14], the AC50 is 9.8 µM (active).
As for `COc1cccc(-c2cc(N3CCN(C(=O)c4ccoc4)CC3)n3nc(-c4cccc(Cl)c4)cc3n2)c1`, the EC50 in [16] was 2.89 µM (active); in test [17] it was 760 nM (active). Further, the AC50 was 49 µM (active) in test [7], 6.22 µM (active) in [8] and > 70 µM (inactive) in test [10].

For the origin of these results see ChEMBL document CHEMBL1201862, “PubChem BioAssay data set” (2004).
